Patent publication US20050079180A1, “Manipulatin of oocyte maturation and male germ cell survival” (priority 2003, published 2005)
Where a SMILES comes first, the peptide text is derived from it. Where no end group is shown, it is not given here. [ ]: non-standard residue; d: D form. d(hArg(Et2)) = CCN=C(NCC)NCCCC[C@@H](N)C(=O)O; hArg(Et2) = CCN=C(NCC)NCCCC[C@H](N)C(=O)O; dPhe(4-Cl) = N[C@H](Cc1ccc(Cl)cc1)C(=O)O; d2Nal = N[C@H](Cc1ccc2ccccc2c1)C(=O)O; d3Pal = N[C@H](Cc1cccnc1)C(=O)O

Key:
INSL3 message = experiment: Gonadotropin deprivation model: testis INSL3 mRNA (Northern blot); assay type: in vivo, rat; conditions: FIG. 4B
Procedure: (§1) Male Sprague-Dawley rats at 28 days of age were treated subcutaneously with GnRH antagonist (250 μg/kg/day) to suppress pituitary gonadotropin secretion. […] Animals were killed 5 days after initial treatment and organ weight determined. Testes were stored at −70° C. before RNA or DNA extraction or fixed in Bouin's solution for in situ labeling of DNA ends.

male germ cells = experiment: Gonadotropin deprivation model: testis apoptotic DNA fragmentation; assay type: in vivo, rat
Procedure: as §1
DNA from whole testis was isolated and quantitated with spectrophotometry at 260 nm. Aliquots of DNA (500 ng) from each sample were labeled at 3′-ends with 32P-dideoxy-ATP (3,000 Ci/mmol: Amersham. Arlington Heights, Ill.) using terminal transferase (25 U/sample; Boehringey-Mannheim, Indianapolis, Ind.) as described. Labeled samples were fractionated through 2% agarose gels. After electrophoresis, gels were dried for 2 h in a slab-gel dryer without heat and exposed to Kodak X-OMAT AR films (Eastman Kodak Co., Rochester, N.Y.) at −70 C. After autoradiography, portions of each lane corresponding to DNA less than 10 kilobases (kb) were isolated and counted in a y-spectrometer for estimating the degree of intenucleosomal DNA fragmentation. For in situ DNA 3′-end labeling, fixed testicular tissues were embedded in paraffin, and cut in 3 μm sections. To detect apoptotic DNA fragmentation, the in situ cell death detection kit (Roche Diagnostics, Mannheim, Germany) was used according to manufacturer's instruction and sections counterstained with hematoxylin.

testis = assay type: in vivo, rat
Procedure: C) Analysis of apoptotic DNA fragmentation in testes using 3′-end DNA labeling with the terminal transferase, followed by gel fractionation and autoradiography. D) In situ staining of apoptotic DNA fragmentation in seminiferous tubules using the TUNNEL method.
as §1

cumulus-enclosed oocytes = experiment: Germinal vesicle breakdown in cultured cumulus-enclosed oocytes; assay type: cell-based, rat; conditions: for oocyte maturation (germinal vesicle breakdown): cultured cumulus-enclosed oocytes from preovulatory follicles, FIG. 1D
Procedure: (§2) Cumulus-enclosed oocytes (CEO) were collected and cultured as described (Vaknin et al. PMID: 11133687). Briefly, female rats at 26 d of age were injected with 15 IU pregnant mare serum gonadotropin (PMSG). After 48-50 h, ovaries were dissected in Leivovitz's L-15 medium (Invitrogen Corp., Carlsbad, Calif.) supplemented with 5% fetal bovine serum and 100 μg/ml of penicillin and streptomycin. The CEOs were collected by puncturing the largest ovarian follicles in the L15 medium containing 0.25 mM of MIX within 20 min, washed twice in L15 medium without MIX and transfer to test medium. The CEO were cultured with or without different doses of rat INSL3 in L15 medium without both FBS and IBMX. For controls, the CEOs were cultured in L15 medium with IBMX. At the end of culture, the occurrence of germinal vesicle breakdown (GVBD) in oocyte was examined after removing cumulus cells surrounding CEO by a small-bore pipette under Hoffman modulation contrast microscopy (Nikon Inc., Tokyo, Japan). For preovulatory follicles, follicles were excised from the ovary after PMSG treatment for 48 h. The follicles, 20-30 per vial, were cultured with or without different doses of rat INSL3 or LH in L15 medium without FBS. The vials were flushed at the start of the culture with O2/N2 (1/1) and cultured at 37C with gently shaking. After culture, individual CEO was dissected from each follicle to examine the occurrence of GVBD. For cAMP determination, 20 to 30 denuded oocytes were cultured with or without rat INSL3 (10 nM) in L15 medium containing 10 μM of cilostamide with or without 50 μM of forskolin. After treatment, oocytes were collected in 2 μl of medium, frozen and thawed to break the cells before acetylation of samples with triethylamine and acetic anhydride (3:1). Intra-oocyte cyclic AMP levels were determined by radioimmunoassay as previously described (Davoren, Hsuch, 1985).

gubernacular cells = conditions: cited from earlier work
recombinant LGR8 = target: T1, recombinant LGR8 (Homo sapiens, UniProt Q8WXD0); conditions: 293T cells expressing recombinant LGR8; cited from earlier work
T1 construct: expressed in transfected cells; host or cells: human 293T cells, calcium phosphate transfection
T1 sequence (Q8WXD0 whole entry): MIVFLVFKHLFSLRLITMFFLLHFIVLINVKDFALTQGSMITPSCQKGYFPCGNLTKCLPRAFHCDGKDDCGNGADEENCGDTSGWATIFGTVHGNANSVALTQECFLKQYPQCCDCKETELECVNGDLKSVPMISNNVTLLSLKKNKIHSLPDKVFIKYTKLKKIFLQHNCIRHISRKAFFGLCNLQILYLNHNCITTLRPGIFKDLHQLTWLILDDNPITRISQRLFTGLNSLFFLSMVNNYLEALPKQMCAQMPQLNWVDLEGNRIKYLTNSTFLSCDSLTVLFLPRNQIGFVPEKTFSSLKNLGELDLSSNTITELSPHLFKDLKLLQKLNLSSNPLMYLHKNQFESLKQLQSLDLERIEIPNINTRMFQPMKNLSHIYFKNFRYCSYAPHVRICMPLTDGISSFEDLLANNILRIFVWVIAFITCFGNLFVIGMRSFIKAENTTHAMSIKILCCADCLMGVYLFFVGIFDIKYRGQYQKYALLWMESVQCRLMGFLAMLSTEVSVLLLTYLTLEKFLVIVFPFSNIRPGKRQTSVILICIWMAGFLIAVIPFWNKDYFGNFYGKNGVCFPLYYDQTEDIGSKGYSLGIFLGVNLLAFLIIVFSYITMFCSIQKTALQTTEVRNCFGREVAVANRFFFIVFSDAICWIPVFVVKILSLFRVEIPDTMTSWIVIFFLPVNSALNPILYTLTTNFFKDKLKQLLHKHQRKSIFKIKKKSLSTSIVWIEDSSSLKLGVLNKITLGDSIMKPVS

[1] = test system: oocytes of preovulatory follicles; experiment: In vivo oocyte maturation after intrabursal injection in PMSG-primed rats; design: species or system rat; conditions: FIG. 3C
Procedure: To study the effect of INSL3 on oocyte maturation in vivo, intrabursal injection was performed (Vaknin et al. PMID: 11133687). Immature PMSG-treated rats were lightly anesthetized by ether, and one of the ovaries was exteriorized through a small lumbosacral incision. Rat INSL3, dissolved in 100 μl of PBS, was injected through a 30-gauge needle threaded into the ovarian bursa via the adjoining fat pad. After injection, the ovary was replaced into the abdominal cavity, and skin was clipped. Eight hours later, CEOs were collected by puncturing the largest ovarian follicles to examine the occurrence of oocyte GVBD.

preovulatory follicles = experiment: Oocyte maturation (GVBD) in cultured intact preovulatory follicles; assay type: cell-based, rat
Procedure: as §2, with “Briefly,” for “Cumulus-enclosed oocytes (CEO) were collected and cultured as described (Vaknin et al. PMID: 11133687). Briefly,”, “For preovulatory follicles, follicles were excised from the ovary after PMSG treatment for 48 h. The follicles, 20-30 per vial, were cultured with or without different doses of rat INSL3 or LH in L15 medium without FBS.” left out, “(3:1).” for “(3:1). Intra-oocyte cyclic AMP levels were determined by radioimmunoassay as previously described (Davoren, Hsuch, 1985).”

[2] = test system: seminiferous tubular cells; experiment: cAMP production by seminiferous tubular cells; assay type: cell-based, rat; conditions: FIG. 2D
Procedure: Seminiferous tubular cells were treated with different hormones or forskolin (FSK) for 12 h before cAMP determination. Some cells were also pretreated with PT before hormonal treatment (filled circles) to suppress Gi activity. B: basal.
Seminiferous tubular cells were isolated by the method of Nagao (1989) In Vitro Cell Dev Biol 25:1088-1098, with modifications. Briefly, testes were decapsulated and incubated for 15 minutes in PBS containing 0.25% collagenase with occasional shaking. After collecting interstitial cells released from the preparation, seminiferous tubules were washed, and incubated with 0.25% trypsin to disperse tubular cells. The resulting cell suspension was filtered through 100 μm nylon mesh to remove cell aggregates and tissue debris, after which the tubular cells were collected by centrifugation.
Total cAMP in each well was measured in triplicate with primary cultured cells by a specific radioimmunoassay as previously described by Davoren and Hsuch (1985) Biol Reprod 33:37-52. All experiments were repeated at least four times.

oocyte = experiment: Gonadotropin induction of ovulation with pertussis toxin co-treatment

CCN=C(NCC)NCCCC[C@H](NC(=O)[C@H](CC(C)C)NC(=O)[C@@H](CCCCNC(=NCC)NCC)NC(=O)[C@H](Cc1ccc(O)cc1)NC(=O)[C@H](CO)NC(=O)[C@@H](Cc1cccnc1)NC(=O)[C@@H](Cc1ccc(Cl)cc1)NC(=O)[C@@H](Cc1ccc2ccccc2c1)NC(C)=O)C(=O)N1CCC[C@H]1C(=O)N[C@H](C)C(N)=O [GnRH antagonist, ganirelix acetate] (Ac-[d2Nal][dPhe(4-Cl)][d3Pal]SY[d(hArg(Et2))]L[hArg(Et2)]P[dA]-NH2)
testis INSL3 message levels (INSL3 message): decreased INSL3 message levels
in situ staining of DNA fragments in seminiferous tubules (male germ cells; GnRH antagonist alone, FIG. 4D panel e): the majority of tubules showed labeled cells corresponding to meiotic pachytene spermatocytes and postmeiotic spermatids
apoptotic DNA fragmentation in testis (male germ cells; GnRH antagonist alone, internucleosomal DNA fragmentation, FIG. 4C): increased apoptotic DNA fragmentation
testis weight (testis; immature rats, GnRH antagonist alone, five days, FIG. 4A): decreased testis weight
weight change in kidney or heart (testis; rat, in vivo): no weight change in kidney or heart was detected

CC(C)Cn1c(=O)n(C)c(=O)c2[nH]cnc21 [MIX, reference compound]
oocyte maturation (germinal vesicle breakdown) (cumulus-enclosed oocytes): completely blocked oocyte maturation

INSL3: Insulin-like hormone superfamily member with B chain and A chain; rat INSL3 chemically synthesized; ligand of LGR8 (chain 1 QPPEARAKLCGHHLVRALVRVCGGPRWSPEA; chain 2 SVATNAVHRCCLTGCTQQDLLGLCPH; ends and bridges not checked; cysteine pairing not given here)
cAMP production (gubernacular cells): stimulatory effects
oocyte maturation (germinal vesicle breakdown) (cumulus-enclosed oocytes): further augmented oocyte maturation in a dose-dependent manner
time after culture at which augmentation of oocyte maturation was evident (cumulus-enclosed oocytes; time-course, cumulus-enclosed oocytes, FIG. 1E): 2 h
apoptosis induced by GnRH antagonist (internucleosomal DNA fragmentation) (male germ cells; co-treatment with GnRH antagonist, FIG. 4C): blocked apoptosis
in situ staining of DNA fragments in seminiferous tubules (male germ cells; co-treatment with GnRH antagonist, FIG. 4D panel f): blocked the apoptosis-inducing action of the GnRH antagonist
cAMP production (recombinant LGR8): stimulatory effects
effect on testis weight decrease caused by GnRH antagonist (testis; co-treatment with GnRH antagonist, five days, FIG. 4A): partially blocked
oocyte maturation (germinal vesicle breakdown in preovulatory follicles) ([1]; 8 h after intrabursal injection): induced oocyte maturation
follicle rupture ([1]; intrabursal treatment): not follicle rupture
oocyte maturation (preovulatory follicles; intact preovulatory follicles, FIG. 1F): induced oocyte maturation in a dose-dependent manner
basal cAMP production ([2]; INSL3 alone, 12 h): basal cAMP production was not affected
cAMP increases induced by forskolin ([2]; INSL3 with forskolin, 12 h): prevented cAMP increases induced by forskolin in a dose-dependent manner
cAMP levels stimulated by FSH ([2]; co-treatment of INSL3 with FSH): did not alter cAMP levels

pertussis toxin
follicle rupture (oocyte): without affecting follicle rupture
gonadotropin induction of oocyte maturation (oocyte): blocks the gonadotropin induction of oocyte maturation
effect on INSL3 induction of oocyte maturation (preovulatory follicles; pertussis toxin with INSL3, FIG. 1G): partially blocked the INSL3 induction of oocyte maturation
effect on LH induction of oocyte maturation (preovulatory follicles; pertussis toxin with LH, FIG. 1G): partially blocked the LH induction of oocyte maturation at lower (50 and 100 ng/ml), but not higher, doses of LH
effect on the suppressive effect of INSL3 on cAMP ([2]; pertussis toxin pretreatment): suppressive effect of INSL3 was blocked
